Laboratory results: patent US20150152091A1, “CROP ENHANCEMENT” (Syngenta Participations AG, priority 2012, published 2015)

Experiments:
Format in all cases: in vivo
[1] = system: temperate cauliflower Spacestar seeds (Brassica oleracea cv Botrytis); test: Standard paper germination test for Brassica, suboptimal conditions; conditions: 25 μM, 10° C. in the light
Protocol: The effect of compounds of Formula (I) on the germination of Brassica oleracea cv Botrytis or common cauliflower was tested on two types of cauliflowers: temperate types and tropical types. These two types were chosen because they display different sensitivities to the light conditions and temperature during germination. Germination of a sensitive temperate type is inhibited by light at 10° C. while for the tropical types germination at 20° is stimulated by the presence of light. […] The temperate seed batches tested are part of commercially produced seed batches of various varieties which are known to be sensitive to light at 10° C. These seeds were harvested and cleaned according standard commercial procedures. Ready seed batches were used (Ready indicates the processing level of these seeds: they have been cleaned and sized but received no other treatments). The tropical seed batches tested are part of seed batches produced as basic seed (for maintenance of the parental line) and were processed accordingly. Germination was assessed using the standard paper germination test for Brassica: Fifty seeds were placed on blue germination paper, which was moistened with the appropriate solutions, in closed oblong germination boxes. Each condition was tested in duplo. Germination boxes were placed in controlled germination cabinets with the appropriate temperature and light conditions. Germination of seeds was counted at regular intervals. Seeds were considered to be germinated when the radical had protruded the testa and endosperm (radical size approximately 1 mm). Test compounds were dissolved in DMSO at a concentration of 50 mM and stored at −20° C. The strigolactone analogue GR24 (commercially available as a racemic mixture of 2 diastereoisomers, referred to as “synthetic strigolactone GR-24” and first prepared by Johnson A. W. & all, Journal of the Chemical Society, Perkin Transactions 1, 1981, page 1734-1743) was included as positive control. Germination solutions were prepared by diluting the stock solutions with demineralized water till 25 μM. As control solutions demineralized water and a 0.05% v/v DMSO solution were used.

[2] = system: Soybean seeds cv. Toliman; test: Soybean seedling emergence in saturated warm test (seed treatment)
Protocol: Soybean seeds cv. Toliman were treated with a test compound of formula I formulated as FS100, at a dose of 0.05 g ai/kg, 0.005 g ai/kg, or 0.0001 g ai/kg seeds. Seeds were planted on 2 cm levelled pre-chilled moist sand and covered with a 2 cm layer of a mixture of steamed soil and sand (1:1). Enough cold water (10° C.) was added to the sand-soil mixture to adjust soil moisture to 60% water holding capacity. The seeds were incubated at 10° C. in the dark for 10 days and transferred into a chamber with alternating temperature (25° C. day/23° C. night) and light source (12 h) for 10 days. Seedling emergence in % and dry mass of above parts of seedling per tray was determined at the end of the incubation period. The test was performed using four replicates (4×50 seeds). Treated seeds used in the saturated cold test were evaluated in parallel in a saturated warm test. Test conditions were the same as those described for the 10 day warm incubation period of the saturated cold test. Briefly, seeds were placed onto a saturated sand layer of 2 cm and covered with saturated sand-soil mixture (60% WHC) at room temperature. The seeds were incubated 10 days at 25° C. day/23° C. night and 12 h light. Seedling emergence and shoot dry mass was determined as described in the saturated cold test method. The test was performed using four replicates each 50 seeds.

[3] = system: Soybean seeds cv. Toliman; test: Soybean seedling emergence in saturated cold test (seed treatment); conditions: for Total shoot dry mass: per tray
Protocol: Soybean seeds cv. Toliman were treated with a test compound of formula I formulated as FS100, at a dose of 0.05 g ai/kg, 0.005 g ai/kg, or 0.0001 g ai/kg seeds. Seeds were planted on 2 cm levelled pre-chilled moist sand and covered with a 2 cm layer of a mixture of steamed soil and sand (1:1). Enough cold water (10° C.) was added to the sand-soil mixture to adjust soil moisture to 60% water holding capacity. The seeds were incubated at 10° C. in the dark for 10 days and transferred into a chamber with alternating temperature (25° C. day/23° C. night) and light source (12 h) for 10 days. Seedling emergence in % and dry mass of above parts of seedling per tray was determined at the end of the incubation period. The test was performed using four replicates (4×50 seeds).

[4] = Spacestar 11B313 (cold-sensitive), set B
[5] = Spacestar 11B314 (not cold sensitive), set B
[6] = 0.05 g ai/kg seeds, 10 days 25/23° C.
[7] = 0.05 g ai/kg seeds, FS100, 10 days 10° C. dark then 10 days 25/23° C.
[8] = Spacestar 11B313 (cold-sensitive), set A
[9] = Spacestar 11B314 (not cold sensitive), set A

SMILES	Gmax (%), total germination as percentage of sown seeds [1, 4] [%]	stimulation (%), extra germination compared to the DMSO treatment [1, 4] [%]	Gmax (%), total germination as percentage of sown seeds [1, 5] [%]	stimulation (%), extra germination compared to the DMSO treatment [1, 5] [%]	Seedling emergence (%) ([2]; 0.0001 g ai/kg seeds)	Total shoot dry mass ([2]; 0.0001 g ai/kg seeds) [g]	Seedling emergence (%) ([2]; 0.005 g ai/kg seeds)	Total shoot dry mass ([2]; 0.005 g ai/kg seeds) [g]	Total shoot dry mass ([2]; 0.05 g ai/kg seeds) [g]	Seedling emergence (%) [2, 6] [%]	Seedling emergence (%) ([3]; 0.0001 g ai/kg seeds, FS100)	Total shoot dry mass ([3]; 0.0001 g ai/kg seeds) [g]	Seedling emergence (%) ([3]; 0.005 g ai/kg seeds, FS100)	Total shoot dry mass ([3]; 0.005 g ai/kg seeds) [g]	Seedling emergence (%) [3, 7] [%]	Total shoot dry mass ([3]; 0.05 g ai/kg seeds) [g]	Gmax (%), total germination as percentage of sown seeds [1, 8] [%]	stimulation (%), extra germination compared to the DMSO treatment [1, 8] [%]	Gmax (%), total germination as percentage of sown seeds [1, 9] [%]	stimulation (%), extra germination compared to the DMSO treatment [1, 9] [%]
CC1=CC(OC=C2C(=O)N(C)C3c4ccccc4CC23)OC1=O (stereo not shown) [Compound A8]	73.0	35.2	93.5	8.7																
CC1=CC(OC=C2C(=O)N(C(=O)OC(C)(C)C)C3c4ccccc4CC23)OC1=O (mixture of isomers) [Compound A5]					91	6.260	91.5	6.095	6.148	91.5	48	3.420	51.5	3.815	55	4.105	74.5	24.2	92.5	2.2
CC1=CC(OC=C2C(=O)NC3c4cccc(C)c4CC23)OC1=O (mixture of isomers) [Compound A9]	59.8	10.6	94.0	9.3																
CC1=C[C@H](O/C=C2/C(=O)O[C@@H]3c4ccccc4C[C@H]23)OC1=O [GR24, reference compound]	80.0	48.1	93.0	8.1													71.5	19.2	93.5	3.3
CC(=O)N1C(=O)C(=COC2C=C(C)C(=O)O2)C2Cc3ccccc3C21 (stereo not shown) [Compound A4]					89	6.035	90	5.908	5.920	86	62	4.788	62.5	4.550	61.5	4.850	82.0	36.7	91.0	0.6
CC1=C(C)C(OC=C2C(=O)NC3c4ccccc4CC23)OC1=O (stereo not shown) [Compound A7]	68.5	26.9	95.0	10.5																
CC1=CC(OC=C2C(=O)NC3c4cccc(Br)c4CC23)OC1=O (stereo not shown) [Compound A2]					89	5.763	87.5	6.105	6.325	91.5	48.5	3.810	49.5	3.725	56	3.993				
CC1=CC(OC=C2C(=O)N(c3ccccc3)C3c4ccccc4CC23)OC1=O (stereo not shown) [Compound A3]					91	6.158	87	6.235	5.918	81	67	4.838	57	4.540	51.5	3.850	74.5	24.2	89.5	−1.1
CC1=CC(OC=C2C(=O)NC3c4ccccc4CC23)OC1=O (stereo not shown) [Compound A1]					88.5	6.053	89	6.010	6.023	91	67.5	5.298	63.5	5.018	54.5	4.438	77.0	28.3	90.5	0.0
CC1=CC(OC=C2C(=O)NC3c4ccccc4CC23)OC1=O (stereo not shown) [Compound B1]					91	5.778	94	6.440	5.935	89	58.5	4.440	67	5.065	44.5	3.365	60.5	0.8	93.5	3.3
